Patent US20040044006A1, “Methods of use of quinolone compounds against pneumococcal and haemophilus bacteria” (priority 1999, published 2004)
Converted amounts (≈) assume the structure as drawn. Where two headings read alike, the source gives them in different places.

Assays:
[1] = system: pneumococci (5 quinolone susceptible and 1 resistant strains); assay: Post-antibiotic effect (PAE) testing; type: cell-based, Streptococcus pneumoniae
Outline: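 Pneumococci (~5×10^6 cfu/ml) in MHB with 5% lysed horse blood were exposed 1 h at 35 °C, the quinolone-resistant strain at 5×MIC, then diluted 1:1000. Viable counts every 2 h until McFarland #1 turbidity. PAE = T − C, the 1 log10 regrowth time versus untreated control; mean of two assays ±SD.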

[2] = system: quinolone-resistant Haemophilus influenzae strains; assay: Microdilution MIC determination in HTM for quinolone-resistant Haemophilus influenzae strains; type: cell-based; conditions: 9 quinolone-resistant Haemophilus influenzae strains
Outline: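 Broth microdilution in HTM, inoculum from 24 h chocolate agar colonies by direct suspension to a final 3-8×10^5 CFU/ml. Incubated in ambient air at 35° C. for 20-24 hours; MIC read as the lowest concentration with no growth.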

[3] = system: pneumococci with ciprofloxacin MICs ≧8 μg/ml; assay: Quinolone agar dilution MICs of 28 ciprofloxacin resistant pneumococcal strains, correlated with QRDR mutations; type: cell-based, Streptococcus pneumoniae
Protocol: Additionally these strains were tested for mutations in parC, gyrA, parE, and gyrB (Pan, et al. Antimicrob. Agents Chemother. 40:2321-2326, 1996) and for efflux mechanism (Brenwald, et ail., Antimicrob. Agents Chemother. 42:2032-2035, 1998).
Gemifloxacin susceptibility powder was obtained from SmithKline Beecham Laboratories, Harlow, UK. Agar dilution methodology was performed on 28 strains as described previously (M. R. Jacobs, Clin. Infect. Dis. 15: 119-127, […] and M. R. Jacobs, Rev. Med. Microbiol. 6:77-93, 1995), using Mueller-Hinton altar (BBL Microbiology Systems, Cockeysville, Md.) supplemented with 5% sheep blood. Standard quality control strains, including Streptococcus pneumoniae ATCC 49619, were included in each run of agar dilution MICs.

[4] = agar dilution, 28 strains with ciprofloxacin MICs ≧8.0 μg/ml

Structure (SMILES): C[C@@H]1CN(c2c(F)c(N)c3c(=O)c(C(=O)O)cn(C4CC4)c3c2F)C[C@H](C)N1 [Sparfloxacin, sparfloxacin]
- PAE ([1]; 5×MIC, quinolone resistant strain): 1.5 h
- PAE ([1]; 10×MIC for 1 h, range over 5 quinolone susceptible strains): 0.3 to 2.0 h
- MIC50 [2]: 1 mg/L (≈ 2.55 µM)
- MIC Range [2]: 0.25 to 8.0 mg/L
- MIC50 ([3]; Streptococcus pneumoniae): 8 mg/L (≈ 20.4 µM)
- MIC90 ([3]; Streptococcus pneumoniae): 16 mg/L (≈ 40.8 µM)
- MIC ([3]; Streptococcus pneumoniae, read-out: MICs in strains with three or four QRDR mutations, 20 strains, bound holds in all 20 (ciprofloxacin, levofloxacin, sparfloxacin), 19 (grepafloxacin), 10 (trovafloxacin), 18 (gemifloxacin)): > 1 mg/L
- MIC ([3]; Streptococcus pneumoniae, read-out: MICs in strains with three or four QRDR mutations, 21 strains, bound holds in all 21 (ciprofloxacin, levofloxacin, sparfloxacin), 20 (grepafloxacin), 11 (trovafloxacin), 19 (gemifloxacin)): ≥ 1 mg/L
- MIC ([3]; Streptococcus pneumoniae, strain 1, ParC S79-F, ParE I460-V, GyrA S81-F, GyrB None): 4 mg/L (≈ 10.2 µM)
- MIC ([3]; Streptococcus pneumoniae, strain 1, ParC S79-F, ParE I460-V, GyrA S83-F, GyrB None): 4 mg/L (≈ 10.2 µM)
- MIC ([3]; Streptococcus pneumoniae, strain 3, ParC D83-N, ParE I460-V, GyrA S81-F, GyrB None): 1 mg/L (≈ 2.55 µM)
- MIC ([3]; Streptococcus pneumoniae, strain 3, ParC D83-N, ParE I460-V, GyrA S83-F, GyrB None): 1 mg/L (≈ 2.55 µM)
- MIC ([3]; Streptococcus pneumoniae, strain 4, ParC S79-F, ParE I460-V, GyrA S81-F, GyrB None): 1 mg/L (≈ 2.55 µM)
- MIC ([3]; Streptococcus pneumoniae, strain 4, ParC S79-F, ParE I460-V, GyrA S83-F, GyrB None): 1 mg/L (≈ 2.55 µM)
- MIC ([3]; Streptococcus pneumoniae, strain 5, ParC R95-C, ParE D435-N, GyrA S81-F, GyrB None): 1 mg/L (≈ 2.55 µM)
- MIC ([3]; Streptococcus pneumoniae, strain 5, ParC R95-C, ParE D435-N, GyrA S83-F, GyrB None): 1 mg/L (≈ 2.55 µM)
- MIC ([3]; Streptococcus pneumoniae, strain 6, ParC S79-Y, ParE I460-V, GyrA E85-K, GyrB None): 8 mg/L (≈ 20.4 µM)
- MIC ([3]; Streptococcus pneumoniae, strain 6, ParC S79-Y, ParE I460-V, GyrA E87-K, GyrB None): 8 mg/L (≈ 20.4 µM)
- MIC ([3]; Streptococcus pneumoniae, strain 7, ParC None, ParE I460-V, GyrA None, GyrB None): 1 mg/L (≈ 2.55 µM)
- MIC ([3]; Streptococcus pneumoniae, strain 8, ParC S79-Y, ParE None, GyrA None, GyrB None): 1 mg/L (≈ 2.55 µM)
- MIC ([3]; Streptococcus pneumoniae, strain 9, ParC S79-Y, ParE None, GyrA None, GyrB None): 2 mg/L (≈ 5.1 µM)
- MIC ([3]; Streptococcus pneumoniae, strain 10, ParC S79-F, ParE I460-V, GyrA S81-C, GyrB None): 4 mg/L (≈ 10.2 µM)
- MIC ([3]; Streptococcus pneumoniae, strain 10, ParC S79-F, ParE I460-V, GyrA S83-C, GyrB None): 4 mg/L (≈ 10.2 µM)
- MIC ([3]; Streptococcus pneumoniae, strain 11, ParC S79-F, ParE I460-V, GyrA S81-F, GyrB None): 4 mg/L (≈ 10.2 µM)
- MIC ([3]; Streptococcus pneumoniae, strain 11, ParC S79-F, ParE I460-V, GyrA S83-F, GyrB None): 4 mg/L (≈ 10.2 µM)
- MIC ([3]; Streptococcus pneumoniae, strain 12, ParC S79-F, ParE I460-V, GyrA None, GyrB D435-N): 1 mg/L (≈ 2.55 µM)
- MIC ([3]; Streptococcus pneumoniae, strain 13, ParC S79-F, ParE I460-V, GyrA None, GyrB E474-K): 8 mg/L (≈ 20.4 µM)
- MIC ([3]; Streptococcus pneumoniae, strain 14, ParC S79-F, ParE I460-V, GyrA S81-F, GyrB None): 8 mg/L (≈ 20.4 µM)
- MIC ([3]; Streptococcus pneumoniae, strain 14, ParC S79-F, ParE I460-V, GyrA S83-F, GyrB None): 8 mg/L (≈ 20.4 µM)
- MIC ([3]; Streptococcus pneumoniae, strain 15, ParC 79-F, ParE I460-V, GyrA S83-F, GyrB None): 8 mg/L (≈ 20.4 µM)
- MIC ([3]; Streptococcus pneumoniae, strain 15, ParC S79-F, ParE I460-V, GyrA S81-F, GyrB None): 8 mg/L (≈ 20.4 µM)
- MIC ([3]; Streptococcus pneumoniae, strain 16, ParC S79-F, ParE I460-V, GyrA S81-F, GyrB None): 8 mg/L (≈ 20.4 µM)
- MIC ([3]; Streptococcus pneumoniae, strain 16, ParC S79-F, ParE I460-V, GyrA S83-F, GyrB None): 8 mg/L (≈ 20.4 µM)
- MIC ([3]; Streptococcus pneumoniae, strain 17, ParC D83-N, ParE None, GyrA S81-F, GyrB None): 8 mg/L (≈ 20.4 µM)
- MIC ([3]; Streptococcus pneumoniae, strain 17, ParC D83-N, ParE None, GyrA S83-F, GyrB None): 8 mg/L (≈ 20.4 µM)
- MIC ([3]; Streptococcus pneumoniae, strain 18, ParC S79-F, ParE I460-V, GyrA S81-F, GyrB None): 8 mg/L (≈ 20.4 µM)
- MIC ([3]; Streptococcus pneumoniae, strain 18, ParC S79-F, ParE I460-V, GyrA S83-F, GyrB None): 8 mg/L (≈ 20.4 µM)
- MIC ([3]; Streptococcus pneumoniae, strain 19, ParC S79-F, ParE I460-V, GyrA S81-F, GyrB None): 8 mg/L (≈ 20.4 µM)
- MIC ([3]; Streptococcus pneumoniae, strain 19, ParC S79-F, ParE I460-V, GyrA S83-F, GyrB None): 8 mg/L (≈ 20.4 µM)
- MIC ([3]; Streptococcus pneumoniae, strain 20, ParC S79-F, ParE I460-V, GyrA E85-K, GyrB None): 8 mg/L (≈ 20.4 µM)
- MIC ([3]; Streptococcus pneumoniae, strain 20, ParC S79-F, ParE I460-V, GyrA E87-K, GyrB None): 8 mg/L (≈ 20.4 µM)
- MIC ([3]; Streptococcus pneumoniae, strain 21, ParC S79-F, ParE I460-V, GyrA S81-F, GyrB None): 8 mg/L (≈ 20.4 µM)
- MIC ([3]; Streptococcus pneumoniae, strain 21, ParC S79-F, ParE I460-V, GyrA S83-F, GyrB None): 8 mg/L (≈ 20.4 µM)
- MIC ([3]; Streptococcus pneumoniae, strain 22, ParC S79-F, ParE I460-V, GyrA S81-Y, GyrB None): 8 mg/L (≈ 20.4 µM)
- MIC ([3]; Streptococcus pneumoniae, strain 22, ParC S79-F, ParE I460-V, GyrA S83-Y, GyrB None): 8 mg/L (≈ 20.4 µM)
- MIC ([3]; Streptococcus pneumoniae, strain 23, ParC S79-Y, ParE None, GyrA S81-A, GyrB None): 8 mg/L (≈ 20.4 µM)
- MIC ([3]; Streptococcus pneumoniae, strain 23, ParC S79-Y, ParE None, GyrA S83-A, GyrB None): 8 mg/L (≈ 20.4 µM)
- MIC ([3]; Streptococcus pneumoniae, strain 26, ParC S79-F, ParE None, GyrA S81-Y, GyrB None): > 32 mg/L
- MIC ([3]; Streptococcus pneumoniae, strain 26, ParC S79-F, ParE None, GyrA S83-Y, GyrB None): > 32 mg/L
- MIC ([3]; Streptococcus pneumoniae, strain 27, ParC S79-Y, ParE I460-V, GyrA S81-F, GyrB None): > 32 mg/L
- MIC ([3]; Streptococcus pneumoniae, strain 27, ParC S79-Y, ParE I460-V, GyrA S83-F, GyrB None): > 32 mg/L
- MIC ([3]; Streptococcus pneumoniae, strain 28, ParC D83-G N91-D, ParE None, GyrA S81-F S114-G, GyrB None): > 32 mg/L
- MIC ([3]; Streptococcus pneumoniae, strain 28, ParC cell empty, ParE None, GyrA S83-F and S116-G, GyrB None): > 32 mg/L
- MIC50 [3, 4]: 8.0 mg/L (≈ 20.4 µM)
- MIC90 [3, 4]: 16.0 mg/L (≈ 40.8 µM)
